Values of other authors in patent US20190038644A1, “PREPARATION FOR NASAL-NASOPHARYNGEAL TREATMENT” (priority 2017, published 2019).

Tests used:
[1] = not metabolized like other sugars, does not alter blood sugar levels
[2] = system: E. Coli and other bacteria; details: versus fructose in cranberries
[3] = system: E. coli adherence to human uroepithelial cells; details: addition of 2.5% D-mannose to E. coli uroepithelial cell suspensions; even when epithelial cells highly receptive

O=C[C@@H](O)[C@@H](O)[C@H](O)[C@H](O)CO [D-mannose]
entry into blood stream [1]: does not enter the blood stream
activity in inhibiting adherence relative to the fructose in cranberries [2]: 10 times
inhibition of adherence of E. coli to uroepithelial cells [3]: completely inhibited adherence
